Measurements taken from PubChem BioAssay (NCI).
Values joined by “and” are separate entries in the source; they are usually repeats but may differ in a detail not shown here. Equal values may be shown once.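 1) Cells in 96-well plates. 2) Compound, 48 h, 5 concentrations. 3) Linear interpolation between surrounding doses. 4) Unreached endpoint = highest concentration. GI50 is the concentration that inhibits growth by half. TGI denotes the concentration required for complete inhibition of growth.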

Legend:
Assay in all cases: NCI tumour cell line growth inhibition, 48 h
[1] = system: A498 renal
[2] = system: COLO 205 colon
[3] = system: EKVX NSCLC
[4] = system: HCT-116 colon
[5] = system: HT29 colon
[6] = system: OVCAR-5 ovarian
[7] = system: SK-MEL-28 melanoma
[8] = system: SK-MEL-5 melanoma
[9] = system: UACC-62 melanoma
[10] = system: LOX IMVI melanoma

In the case of O=C(N/N=C1/C(=O)N(c2ccc(Cl)cc2Cl)C(=O)C(=O)C1c1nc2ccccc2o1)c1ccccc1O (stereo not given), the TGI [1] is reported as 88200 nM, the TGI [2] is reported as > 100000 nM and the TGI [3] is reported as > 100000 nM. For the same molecule, the TGI [4] was > 100000 nM, the TGI [5] was > 100000 nM and the TGI [6] was > 100000 nM. It also gave a TGI [7] of 71000 nM, a TGI [8] of 40200 nM and a TGI [9] of 48600 nM.

Work on Nc1nccc2c1ccn2-c1ccc(NC(=O)c2ccc(N3CCOCC3)c(C(F)(F)F)c2)cc1 yielded a GI50 [1] of 402 nM, a TGI [1] of 2940 nM and a GI50 [2] of 297 nM. For the same molecule, the TGI [2] was 871 nM, the GI50 [3] was 1690 nM and the TGI [3] was 70200 nM. It also gave a GI50 [4] of 873 nM, a TGI [4] of 11100 nM and a GI50 [5] of 322 nM. For the same molecule, the TGI [5] was 1260 nM, the GI50 [10] was 331 nM and the TGI [10] was 1480 nM. It also gave a GI50 [6] of 1640 nM, a TGI [6] of 20600 nM and a GI50 [7] of 1170 nM. The TGI [7] was 14100 nM, the GI50 [8] was 944 nM and the TGI [8] was 2280 nM. For the same molecule, the GI50 [9] was 337 nM and the TGI [9] was 1190 nM.

Ic1ccc(-n2nnnc2-c2cnoc2-c2ccccc2)cc1 was tested, and the GI50 [1] was 22000 nM, the TGI [1] was 74400 nM and the GI50 [2] was > 59000 nM. For the same molecule, the TGI [2] was > 100000 nM, the GI50 [3] was 7490 nM and the TGI [3] was > 21700 nM. The GI50 [4] was > 43000 nM, the TGI [4] was > 70000 nM and the GI50 [5] was > 100000 nM. For the same molecule, the TGI [5] was > 100000 nM, the GI50 [10] was 49300 nM and the TGI [10] was > 100000 nM. The GI50 [6] was > 100000 nM, the TGI [6] was > 100000 nM and the GI50 [7] was > 62200 nM. The TGI [7] was > 100000 nM, the GI50 [8] was 25700 nM and the TGI [8] was > 72700 nM. For the same molecule, the GI50 [9] was 29300 nM and the TGI [9] was > 83600 nM.

With Cc1cn2c(/C=C3\C(=O)Nc4ccc(O)cc43)c(-c3ccc(Cl)cc3)nc2s1 the GI50 [1] was 16800 nM, the TGI [1] was 38800 nM and the GI50 [2] was 20800 nM. The TGI [2] was 81100 nM, the GI50 [3] was 14900 nM and the TGI [3] was 60600 nM. For the same molecule, the GI50 [4] was 15600 nM, the TGI [4] was 42500 nM and the GI50 [5] was 18100 nM. For the same molecule, the TGI [5] was 56200 nM, the GI50 [10] was 21300 nM and the TGI [10] was > 100000 nM. It also gave a GI50 [6] of 21200 nM, a TGI [6] of 51400 nM and a GI50 [7] of 12200 nM. It also gave a TGI [7] of 28100 nM, a GI50 [8] of 10100 nM and a TGI [8] of 25200 nM. It also gave a GI50 [9] of 9400 nM and a TGI [9] of 56200 nM.

Work on Cc1nc2cnc(N)c(C#Cc3cncc(C(=O)Nc4ccc(CN5CCN(C)CC5)c(C(F)(F)F)c4)c3)c2nc1C yielded a GI50 [1] of 180 nM, a TGI [1] of 1170 nM and a GI50 [2] of 55.8 nM. It also gave a TGI [2] of 634 nM, a GI50 [3] of 739 nM and a TGI [3] of 12600 nM. The GI50 [4] was 219 nM, the TGI [4] was 1570 nM and the GI50 [5] was 45.6 nM. For the same molecule, the TGI [5] was 2720 nM, the GI50 [10] was 101 nM and the TGI [10] was 1050 nM. For the same molecule, the GI50 [6] was 304 nM, the TGI [6] was 11000 nM and the GI50 [7] was 166 nM. For the same molecule, the TGI [7] was 1320 nM, the GI50 [8] was 748 nM and the TGI [8] was 6070 nM. It also gave a GI50 [9] of 116 nM and a TGI [9] of 1070 nM.

COc1cccc2c1C(=O)c1c(O)c3c(c(O)c1C2=O)CC(O)(/C(C)=N/NC(=O)CCC(=O)N/N=C(\C)C1(O)Cc2c(O)c4c(c(O)c2C(OC2CC(N)C(O)C(C)O2)C1)C(=O)c1c(OC)cccc1C4=O)CC3OC1CC(N)C(O)C(C)O1 (stereo not given) was tested, and the GI50 [1] was 161 nM, the TGI [1] was 939 nM and the GI50 [2] was 157 nM. The TGI [2] was 795 nM, the GI50 [3] was 1120 nM and the TGI [3] was 22100 nM. The GI50 [4] was 147 nM, the TGI [4] was 914 nM and the GI50 [5] was 333 nM. The TGI [5] was > 10500 nM, the GI50 [10] was 126 nM and the TGI [10] was 1050 nM. The GI50 [6] was 1020 nM, the TGI [6] was 3680 nM and the GI50 [7] was 371 nM. The TGI [7] was 1350 nM.

COc1cc(CNCCCN2C(=O)c3ccc4c5c(ccc(c35)C2=O)C(=O)N(CCCNCc2cc(OC)c(OC)c(OC)c2)C4=O)cc(OC)c1OC was tested, and the GI50 [1] was 627 nM, the TGI [1] was 1410 nM and the GI50 [2] was 139 nM. For the same molecule, the TGI [2] was 352 nM, the GI50 [3] was 543 nM and the TGI [3] was 1350 nM. It also gave a GI50 [4] of 133 nM, a TGI [4] of 410 nM and a GI50 [5] of 163 nM. The TGI [5] was 933 nM, the GI50 [10] was 140 nM and the TGI [10] was 525 nM. For the same molecule, the GI50 [6] was 801 nM, the TGI [6] was 2790 nM and the GI50 [7] was 841 nM. It also gave a TGI [7] of 1570 nM, a GI50 [8] of 390 nM and a TGI [8] of 1030 nM. The GI50 [9] was 793 nM and the TGI [9] was 1570 nM.

For CCC1C2C=CC(CC2)N1S(=O)(=O)c1ccc(C)cc1 (stereo not given), the TGI [1] was > 100000 nM, the TGI [2] was 54500 nM and the TGI [3] was > 100000 nM. For the same molecule, the TGI [4] was > 100000 nM, the TGI [5] was 42100 nM and the TGI [10] was 31500 nM. For the same molecule, the TGI [6] was 79000 nM, the TGI [8] was 36100 nM and the TGI [9] was 49700 nM.

In the case of Cc1ccc(S(=O)(=O)N/N=C/c2oc(-c3ccncc3)c(-c3ccncc3)c2[N+](=O)[O-])cc1, the TGI [1] is reported as > 100000 nM, the TGI [2] is reported as > 100000 nM and the TGI [3] is reported as > 100000 nM. The TGI [4] was > 100000 nM, the TGI [5] was > 100000 nM and the TGI [10] was > 100000 nM. The TGI [6] was > 100000 nM, the TGI [7] was > 100000 nM and the TGI [8] was > 100000 nM. For the same molecule, the TGI [9] was > 100000 nM.

For COc1cc(C2c3cc4c(cc3C(O)C(CO)C2CO)OCO4)cc(OC)c1OC (stereo not given), the GI50 [1] was 321 nM, the GI50 [2] was 725 nM and the TGI [2] was 5760 nM. The GI50 [3] was 1270 nM, the TGI [3] was > 71000 nM and the GI50 [4] was 492 nM. The TGI [4] was > 100000 nM, the GI50 [5] was 422 nM and the GI50 [10] was 656 nM. The TGI [10] was > 100000 nM, the GI50 [6] was 5690 nM and the TGI [6] was > 100000 nM. For the same molecule, the GI50 [7] was 1600 nM, the TGI [7] was > 100000 nM and the GI50 [8] was 636 nM. For the same molecule, the TGI [8] was > 72000 nM, the GI50 [9] was 534 nM and the TGI [9] was > 100000 nM.

With O=C(c1c(F)ccc(NS(=O)(=O)N2CC[C@@H](F)C2)c1F)c1c[nH]c2ncc(-c3cnc(C4CC4)nc3)cc12 the GI50 [1] was 3950 nM and 3770 nM, the TGI [1] was > 10000 nM and 23100 nM and the GI50 [2] was 4.82 nM and < 10 nM. For the same molecule, the TGI [2] was > 7600 nM and 12200 nM, the GI50 [3] was > 10000 nM and 9150 nM and the TGI [3] was > 10000 nM and 51500 nM. For the same molecule, the GI50 [4] was 4520 nM and 4110 nM, the TGI [4] was > 10000 nM and 41800 nM and the GI50 [5] was 12.4 nM and 11.8 nM. For the same molecule, the TGI [5] was > 10000 nM and 12400 nM, the GI50 [10] was 305 nM and 342 nM and the TGI [10] was > 10000 nM and 17200 nM. For the same molecule, the GI50 [6] was > 6420 nM and 9040 nM, the TGI [6] was > 10000 nM and 46400 nM and the GI50 [7] was 3.75 nM and < 10 nM. For the same molecule, the TGI [7] was 194 nM and 599 nM, the GI50 [8] was 1010 nM and 651 nM and the TGI [8] was > 10000 nM and 16700 nM. For the same molecule, the GI50 [9] was 3.3 nM and < 10 nM and the TGI [9] was 130 nM and 123 nM.

CCN1CCN=c2c3cc(OC)ccc3n3cnc4ccc1c2c43 gave a TGI [1] of 735 nM, a TGI [2] of 606 nM and a TGI [3] of 2330 nM. The TGI [4] was 194 nM, the TGI [5] was 1010 nM and the TGI [10] was 776 nM. It also gave a TGI [6] of 929 nM, a TGI [7] of 1830 nM and a TGI [8] of 784 nM. The TGI [9] was 975 nM.

For O=C1NC(=S)NNC12c1ccccc1-c1ccccc12, the TGI [1] was 9930 nM, the TGI [2] was > 10000 nM and the TGI [3] was > 10000 nM. For the same molecule, the TGI [5] was > 10000 nM, the TGI [10] was > 10000 nM and the TGI [7] was > 10000 nM. The TGI [8] was > 10000 nM and the TGI [9] was > 10000 nM.
